Source: patent US4118561A, “7-(Substituted)-7H-pyrrolo[3,2-f]quinazoline-1,3-diamines” (priority 1977, dated 1978)
Converted amounts (≈) assume the structure as drawn. Where two headings read alike, the source gives them in different places.

What was measured:
S. aureus Smith = assay: In vitro antibacterial activity (MIC), S. aureus Smith; conditions: Staphylococcus aureus, 18 h
N. catarrhalis 8193 = assay: In vitro antibacterial activity (MIC), N. catarrhalis 8193; conditions: 18 h
P. vulgaris 6896 = assay: In vitro antibacterial activity (MIC), P. vulgaris 6896; conditions: Proteus vulgaris, 6896, 18 h
E. coli 9637 = assay: In vitro antibacterial activity (MIC), E. coli 9637; conditions: Escherichia coli, 9637, 18 h
S. aureus 53-180 = assay: In vitro antibacterial activity (MIC), S. aureus 53-180; conditions: Staphylococcus aureus, 53180, 18 h
S. paratyphi 11737 = assay: In vitro antibacterial activity (MIC), S. paratyphi 11737; format: cell-based; conditions: Salmonella enterica, 18 h
K. pneumoniae 10031 = assay: In vitro antibacterial activity (MIC), K. pneumoniae 10031; conditions: Klebsiella pneumoniae, 10031, 18 h
bacterial infections = assay: Synergism with sulfamethoxazole against bacterial infections in mice, oral; format: in vivo
Experimental: The invention also provides compounds which will potentiate the antibacterial effects of sulfa drugs.
(§1) The test agents are weighed, suspended in 0.5% aqueous carboxymethyl cellulose, homogenized (glass tissue grinder) and diluted according to the design of the experiment. Mice (male, 18±1 g., CD-1 strain) are pre-weighed, pooled, infected at random intraperitoneally with a 0.5 ml. standardized suspension (LD95 ±5%) of the bacterial organism in 5% gastric mucin and treated at random with single doses of the test agents either at the time of infection or six hours after infecting. The treated groups consist of ten mice per dosage level. Deaths are recorded daily for 14 days and the PD50 (mice are treated at time of infection) and CD50 (mice are treated six hours after infecting) values are calculated by the method of Reed and Muench [Amer. J. Hyg., 27, 493 (1938)].

Proteus mirabilis 190 = assay: In vivo antibacterial synergism (mouse), Proteus mirabilis 190; set-up: species or system Proteus mirabilis (infected mice, CD-1); conditions: mice, p.o.; for ED50: Proteus mirabilis, 190, po, 336 h; for PD50 SM/Cpd. (compound part): 0 hours, 20160 min
Experimental: as §1

[1] = test system: Plasmodium berghei KBG 173; assay: Antimalarial blood schizonticidal test in mice; format: in vivo, Plasmodium berghei (infected ICR/HA Swiss mice); set-up: ΔMST (increase in mean survival time): unit: days; conditions: s.c.; for ED100 / minimal effective dose: Plasmodium berghei, sc, single dose; for ED100: read-out: Lowest Dose Curing All Mice; for minimal effective dose: read-out: Min. Curing Dose; for Cure/Treat at Min. Curing Dose: at the Min. Curing Dose
Summary of the method: (§2)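 ICR/HA Swiss mice (18–22 g) infected i.p. with 4 × 10^7 P. berghei KBG 173-parasitized cells; single subcutaneous dose in peanut oil at 72 h post-infection, graded dosages. Survival followed 60 days; 60-day survivors counted cured, deaths before day 6 counted toxic; mean survival time compared with untreated controls.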

[2] = Antimalarial blood schizonticidal test in mice; format: in vivo, Plasmodium berghei (infected ICR/HA Swiss mice); set-up: ΔMST (increase in mean survival time): unit: days; conditions: mouse, in vivo, sc, single dose, read-out: Highest Non-Lethal Dose
Summary of the method: as §2

P. cynomolgi = assay: Activity against P. cynomolgi infections in Rhesus monkeys; format: in vivo, P. cynomolgi (infected Rhesus monkeys); conditions: Plasmodium cynomolgi, in Macaca mulatta, 168 h; Rhesus monkeys, oral, seven days; read-out: CD50 (the source's name)
Proteus vulgaris 347 = assay: In vivo antibacterial synergism (mouse), Proteus vulgaris 347; set-up: species or system Proteus vulgaris (infected mice, CD-1); conditions: Proteus vulgaris, 347, po, 336 h, mice, p.o.
Experimental: as §1

Escherichia coli W-102 = assay: In vivo antibacterial synergism (mouse), Escherichia coli W-102; set-up: species or system Escherichia coli (infected mice, CD-1); conditions: Escherichia coli, W102, po, 336 h; mice, p.o., treated 0 hours after infecting; read-out: PD50 (agent alone)
Experimental: as §1

Proteus mirabilis 3 = assay: In vivo antibacterial synergism (mouse), Proteus mirabilis 3; set-up: species or system Proteus mirabilis (infected mice, CD-1); conditions: Proteus mirabilis, 3, po, 336 h; mice, p.o., treated 0 hours after infecting; read-out: PD50 (agent alone)
Experimental: as §1

[3] = test system: lymphocytic leukemia P-388; assay: Activity in mice against lymphocytic leukemia P-388; format: in vivo; conditions: Mus musculus, P388, ip; mice, I.P., 10 mg/kg; read-out: T/C
[4] = treated 0 hours after infecting, read-out: PD50 (agent alone)
[5] = infected mice, highest dose with no deaths for any reason
[6] = treated 6 hours after infecting, read-out: CD50 (agent alone)
[7] = 336 h, alive on day 14 considered cured, no 60-day data

## Cc1cc2c3c(N)nc(N)nc3ccc2n1Cc1ccccc1 [Example 100, 8-methyl-7-(phenylmethyl)-7H-pyrrolo[3,2-f]-quinazoline-1,3-diamine]
S. aureus Smith
  MIC: 1.95 µg/mL (≈ 6.43 µM)
N. catarrhalis 8193
  MIC: 0.122 µg/mL (≈ 0.402 µM)
P. vulgaris 6896
  MIC: 15.6 µg/mL (≈ 51.4 µM)
E. coli 9637
  MIC: 0.488 µg/mL (≈ 1.61 µM)
S. aureus 53-180
  MIC: 0.976 µg/mL (≈ 3.22 µM)
S. paratyphi 11737
  MIC: 3.9 µg/mL (≈ 12.9 µM)
K. pneumoniae 10031
  MIC: 0.244 µg/mL (≈ 0.804 µM)
Bacterial infections
  synergistic effect with sulfamethoxazole: synergistic effect
Proteus mirabilis 190; [4]
  ED50: 36.6 mg/kg
Proteus mirabilis 190; with SM 1.56 mg. per kg.
  PD50 SM/Cpd. (compound part): 3.11 mg. per kg.

## Nc1nc(N)c2c(ccc3c2ccn3Cc2ccc(F)cc2)n1 [Example 5, 7-[(4-fluorophenyl)methyl]-7H-pyrrolo[3,2-f]-quinazoline-1,3-diamine]
S. aureus Smith
  MIC: 0.244 µg/mL (≈ 0.794 µM)
N. catarrhalis 8193
  MIC: 0.0038 µg/mL (≈ 0.0124 µM)
P. vulgaris 6896
  MIC: 0.488 µg/mL (≈ 1.59 µM)
E. coli 9637
  MIC: 0.122 µg/mL (≈ 0.397 µM)
S. aureus 53-180
  MIC: 0.122 µg/mL (≈ 0.397 µM)
S. paratyphi 11737
  MIC: 0.488 µg/mL (≈ 1.59 µM)
[1]; 1440 h, 60-day survivors
  ED100: 20 mg/kg
  minimal effective dose: 5 mg/kg
[1]; 60-day survivors
  Cure/Treat at Min. Curing Dose: 2/5
[1]; dose 2.5 mg. per kg.
  ΔMST (increase in mean survival time): 7.1
[2]; [5]
  MTD: 80 mg/kg
K. pneumoniae 10031
  MIC: 0.031 µg/mL (≈ 0.101 µM)
Bacterial infections
  synergistic effect with sulfamethoxazole: synergistic effect
Proteus mirabilis 190; [4]
  ED50: 9.8 mg/kg
Proteus mirabilis 190; with SM 1.56 mg. per kg.
  PD50 SM/Cpd. (compound part): 1.56 mg. per kg.

## COc1ccc(Cn2ccc3c4c(N)nc(N)nc4ccc32)cc1 [Example 34, 7-[(4-methoxyphenyl)methyl]-7H-pyrrolo[3,2-f]quinazoline-1,3-diamine]
S. aureus Smith
  MIC: 0.976 µg/mL (≈ 3.06 µM)
N. catarrhalis 8193
  MIC: 0.0152 µg/mL (≈ 0.0476 µM)
P. vulgaris 6896
  MIC: 0.976 µg/mL (≈ 3.06 µM)
P. cynomolgi
  ED50: 0.316 mg/kg
E. coli 9637
  MIC: 0.488 µg/mL (≈ 1.53 µM)
S. aureus 53-180
  MIC: 0.244 µg/mL (≈ 0.764 µM)
S. paratyphi 11737
  MIC: 0.976 µg/mL (≈ 3.06 µM)
[1]; 1440 h, 60-day survivors
  ED100: 20 mg/kg
  minimal effective dose: 5 mg/kg
[1]; 60-day survivors
  Cure/Treat at Min. Curing Dose: 2/5
[1]; dose 5 mg. per kg.
  ΔMST (increase in mean survival time): 11.2
[2]; [5]
  MTD: 160 mg/kg
K. pneumoniae 10031
  MIC: 0.061 µg/mL (≈ 0.191 µM)

## N#Cc1cccc(Cn2ccc3c4c(N)nc(N)nc4ccc32)c1 [Example 15, 7-[(3-cyanophenyl)methyl]-7H-pyrrolo[3,2-f]-quinazoline-1,3-diamine]
S. aureus Smith
  MIC: 0.061 µg/mL (≈ 0.194 µM)
N. catarrhalis 8193
  MIC: 0.0038 µg/mL (≈ 0.0121 µM)
P. vulgaris 6896
  MIC: 0.976 µg/mL (≈ 3.1 µM)
E. coli 9637
  MIC: 0.122 µg/mL (≈ 0.388 µM)
S. aureus 53-180
  MIC: 0.031 µg/mL (≈ 0.0986 µM)
S. paratyphi 11737
  MIC: 0.488 µg/mL (≈ 1.55 µM)
[1]; 1440 h, 60-day survivors
  ED100: 10 mg/kg
  minimal effective dose: 1.25 mg/kg
[1]; 60-day survivors
  Cure/Treat at Min. Curing Dose: 2/5
[1]; dose 1.25 mg. per kg.
  ΔMST (increase in mean survival time): 9.6
[2]; [5]
  MTD: 40 mg/kg
K. pneumoniae 10031
  MIC: 0.031 µg/mL (≈ 0.0986 µM)
Bacterial infections
  synergistic effect with sulfamethoxazole: synergistic effect
Proteus mirabilis 190; [4]
  ED50: 8.8 mg/kg
Proteus mirabilis 190; with SM 1.56 mg. per kg.
  PD50 SM/Cpd. (compound part): 2.67 mg. per kg.

## Nc1nc(N)c2c(ccc3c2ccn3-c2nccs2)n1 [Example 81, 7-(2-thiazolyl)-7H-pyrrolo[3,2-f]quinazoline-1,3-diamine]
S. aureus Smith
  MIC: 0.488 µg/mL (≈ 1.73 µM)
N. catarrhalis 8193
  MIC: 0.0152 µg/mL (≈ 0.0538 µM)
P. vulgaris 6896
  MIC: 3.9 µg/mL (≈ 13.8 µM)
E. coli 9637
  MIC: 0.976 µg/mL (≈ 3.46 µM)
S. aureus 53-180
  MIC: 0.244 µg/mL (≈ 0.864 µM)
S. paratyphi 11737
  MIC: 1.95 µg/mL (≈ 6.91 µM)
[1]; 1440 h, 60-day survivors
  minimal effective dose: 640 mg/kg
[1]; 60-day survivors
  Cure/Treat at Min. Curing Dose: 4/5
[1]; dose 160 mg. per kg.
  ΔMST (increase in mean survival time): 8.3
K. pneumoniae 10031
  MIC: 0.244 µg/mL (≈ 0.864 µM)
Bacterial infections
  synergistic effect with sulfamethoxazole: synergistic effect
Proteus mirabilis 190; [4]
  ED50: 22.3 mg/kg
Proteus mirabilis 190; with SM 1.56 mg. per kg.
  PD50 SM/Cpd. (compound part): > 12.5 mg. per kg.
Proteus mirabilis 190; with SM 3.11 mg. per kg.
  PD50 SM/Cpd. (compound part): 6.25 mg. per kg.

## Cc1cc(NS(=O)(=O)c2ccc(N)cc2)no1 [SM, sulfomethoxazole, reference compound]
Proteus vulgaris 347; [4]
  ED50: 43.2 mg/kg
Proteus vulgaris 347; [6]
  ED50: 60 mg/kg
Escherichia coli W-102
  ED50: 95 mg/kg
Proteus mirabilis 190; [6]
  ED50: 14 mg/kg
Proteus mirabilis 3
  ED50: 9.9 mg/kg

## N#Cc1ccc(-n2ccc3c4c(N)nc(N)nc4ccc32)cc1 [Example 69, 7-(4-Cyanophenyl)-7H-pyrrolo[3,2-f]-quinazoline-1,3-diamine]
S. aureus Smith
  MIC: 0.976 µg/mL (≈ 3.25 µM)
N. catarrhalis 8193
  MIC: 0.031 µg/mL (≈ 0.103 µM)
P. vulgaris 6896
  MIC: 125 µg/mL (≈ 416 µM)
E. coli 9637
  MIC: 0.976 µg/mL (≈ 3.25 µM)
S. aureus 53-180
  MIC: 0.488 µg/mL (≈ 1.62 µM)
S. paratyphi 11737
  MIC: 31.3 µg/mL (≈ 104 µM)
[1]; 1440 h, 60-day survivors
  ED100: 20 mg/kg
  minimal effective dose: 5 mg/kg
[1]; 60-day survivors
  Cure/Treat at Min. Curing Dose: 3/5
[1]; dose 2.5 mg. per kg.
  ΔMST (increase in mean survival time): 11
[2]; [5]
  MTD: 20 mg/kg
K. pneumoniae 10031
  MIC: 0.122 µg/mL (≈ 0.406 µM)
Bacterial infections
  synergistic effect with sulfamethoxazole: synergistic effect
Proteus mirabilis 190; [4]
  ED50: > 400 mg/kg
Proteus mirabilis 190; with SM 0.39 mg. per kg.
  PD50 SM/Cpd. (compound part): > 12.5 mg. per kg.
Proteus mirabilis 190; with SM 0.78 mg. per kg.
  PD50 SM/Cpd. (compound part): > 12.5 mg. per kg.
Proteus mirabilis 190; with SM 1.56 mg. per kg.
  PD50 SM/Cpd. (compound part): 9.39 mg. per kg.
Proteus mirabilis 190; with SM 3.11 mg. per kg.
  PD50 SM/Cpd. (compound part): 2.55 mg. per kg.

## Nc1nc(N)c2c(ccc3c2ccn3Cc2ccsc2)n1 [Example 41]
S. aureus Smith
  MIC: 0.976 µg/mL (≈ 3.3 µM)
N. catarrhalis 8193
  MIC: 0.0152 µg/mL (≈ 0.0515 µM)
P. vulgaris 6896
  MIC: 1.95 µg/mL (≈ 6.6 µM)
E. coli 9637
  MIC: 0.244 µg/mL (≈ 0.826 µM)
S. aureus 53-180
  MIC: 0.976 µg/mL (≈ 3.3 µM)
S. paratyphi 11737
  MIC: 0.976 µg/mL (≈ 3.3 µM)
[1]; [7]
  ED100: 160 mg/kg
  minimal effective dose: 20 mg/kg
[1]; alive on day 14 considered cured
  Cure/Treat at Min. Curing Dose: 3/5
[2]; alive on day 14 considered cured, no 60-day data
  MTD: 320 mg/kg
K. pneumoniae 10031
  MIC: 0.061 µg/mL (≈ 0.207 µM)
[3]
  response vs control in vivo at 10 mg/kg: 147%
